Test results as given in the NIST ThermoML archive (doi:10.1016/j.tca.2017.12.006).

Details: Liquid, Transpiration method

CCCCOC(=O)CCC(C)=O [butyl levulinate]
Details	vapor or sublimation pressure [kPa]
298.2 K	0.00393
303.2 K	0.00611
308.1 K	0.00895
313 K	0.01421
318 K	0.01999
323 K	0.03006
327.9 K	0.0443
332.8 K	0.0632
337.8 K	0.0939
342.8 K	0.1289
347.8 K	0.181

CCOC(=O)CCC(C)=O [ethyl levulinate]
Details	vapor or sublimation pressure [kPa]
293.5 K	0.0169
298.4 K	0.0253
303.3 K	0.0375
308.3 K	0.0542
313.3 K	0.0795
318.3 K	0.1129
323.3 K	0.1613
328.2 K	0.2312
333.1 K	0.3106
338.1 K	0.415
343.1 K	0.553
348.8 K	0.758

COC(=O)CCC(C)=O [methyl levulinate]
Details	vapor or sublimation pressure [kPa]
293.5 K	0.0302
298.5 K	0.0442
303.3 K	0.0638
308.5 K	0.0929
313.4 K	0.1359
318.3 K	0.1837
323.2 K	0.2626
328.2 K	0.3572
333.2 K	0.501
338.2 K	0.659
343.1 K	0.878
348.2 K	1.142
353.2 K	1.473
